{"source": "patent US7709654B2", "about": "“Process for producing oxazole, imidazole, pyrrazole boryl compounds” (Board of Trustees of Michigan State University, priority 2006, dated 2010)", "origin": "cited, not measured here", "biological_target": "T1, cyclooxygenase-2 (COX-2) (Homo sapiens, UniProt P35354)", "T1 sequence (P35354 18-604)": "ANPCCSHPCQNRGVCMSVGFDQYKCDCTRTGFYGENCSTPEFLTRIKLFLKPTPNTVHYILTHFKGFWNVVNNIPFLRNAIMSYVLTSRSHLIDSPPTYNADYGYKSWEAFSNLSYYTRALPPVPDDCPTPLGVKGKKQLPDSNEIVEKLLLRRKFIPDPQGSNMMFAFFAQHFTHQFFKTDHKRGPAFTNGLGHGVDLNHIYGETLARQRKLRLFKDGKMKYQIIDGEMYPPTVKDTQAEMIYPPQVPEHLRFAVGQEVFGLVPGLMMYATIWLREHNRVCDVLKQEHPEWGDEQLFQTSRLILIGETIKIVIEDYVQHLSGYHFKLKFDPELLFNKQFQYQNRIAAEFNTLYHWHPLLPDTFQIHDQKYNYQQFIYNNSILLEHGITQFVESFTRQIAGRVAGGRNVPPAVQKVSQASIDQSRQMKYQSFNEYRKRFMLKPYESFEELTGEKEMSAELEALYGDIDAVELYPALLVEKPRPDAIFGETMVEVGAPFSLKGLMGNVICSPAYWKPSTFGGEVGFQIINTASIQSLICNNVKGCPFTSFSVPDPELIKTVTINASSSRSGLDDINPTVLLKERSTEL", "conditions": "COX-2 versus COX-1"}
{"molecule": "Cc1nc(C2CCCCC2)c(-c2ccc(S(N)(=O)=O)c(F)c2)o1", "note": "[JTE-522, 4-(4-cyclohexyl-2-methyloxazol-5-yl)-2-fluorobenzenesulfonamide]", "values": [{"measurement": "COX-2 inhibition (in words)", "value": "potent, highly selective, and orally active COX-2 inhibitor"}]}
